Measurements reported in patent US8586098B2, “Loading of hydrophobic drugs into hydrophilic polymer delivery systems” (Biocompatibles UK Limited, priority 2006, dated 2013).
Converted amounts (≈) assume the structure as drawn. Where two headings read alike, the source gives them in different places.

Columns and labels:
[1] = solubility in DMSO at room temperature; type: physicochemical; details: for Sol^y in DMSO / Sol^y Ratio: room temperature; for Sol^y Ratio: solubility in solvent (DMSO):solubility in water
Source text: For these compounds the following table gives comparison water and solvent solubilities at room temperature. […]

[2] = solubility in water at room temperature; type: physicochemical; details: for Sol^y in water: room temperature
Source text: For these compounds the following table gives comparison water and solvent solubilities at room temperature.

[3] = background description; cited from earlier work
[4] = background description; cited from earlier work; remark: listed apart in the source
[5] = benzyl alcohol, chloroform, acetone, acetonitrile; cited from earlier work

Row | Structure (SMILES) | Sol^y in DMSO [1] [g/L] | Sol^y Ratio [1] | Sol^y in water [2] | solubility ([1]; DMSO, organic solvent or mixture, room temp, Example 3) [mg/mL] | solubility in water (in words) ([2]; Example 3) | lipophilicity (in words) [3] | solubility in water (in words) [4] | solubility in organic solvents (in words) [5]
1 | CC[C@@]1(O)C(=O)OCc2c1cc1n(c2=O)Cc2cc3ccccc3nc2-1 [Camptothecin] | 10 | >10^3 | insol (insoluble means less than 10 mg/l) | – | – | – | – | –
2 | C[C@@H]1C[C@H]2[C@@H]3CCC4=CC(=O)C=C[C@]4(C)[C@@]3(F)[C@@H](O)C[C@]2(C)[C@@]1(O)C(=O)CO [Dexamethasone] | 600 | >10^5 | insol (insoluble means less than 10 mg/l) | ~60 (≈ 153 mM) | practically insoluble in water | – | – | –
3 | CN(Cc1cnc2nc(N)nc(N)c2n1)c1ccc(C(=O)N[C@@H](CCC(=O)O)C(=O)O)cc1 [Methotrexate] | 200 | >5 × 10^4 | insol (insoluble means less than 10 mg/l) | – | – | – | – | –
4 | CC(=O)O[C@H]1C(=O)[C@@]2(C)[C@H]([C@H](OC(=O)c3ccccc3)[C@]3(O)C[C@H](OC(=O)[C@H](O)[C@@H](NC(=O)c4ccccc4)c4ccccc4)C(C)=C1C3(C)C)[C@]1(OC(C)=O)CO[C@@H]1C[C@@H]2O [Paclitaxel, 5β,20-Epoxy-1,2α,4,7β,10β,13α-hexahydroxytax-11-en-9-one 4,10-diacetate-2-benzoate 13-ester with (2R,3S)—N-benzoyl-3-phenylisoserine] | 50 | – | 0.3 to 30 mg/L | – | – | highly lipophilic | insoluble in water | –
5 | CO[C@H]1C[C@@H]2CC[C@@H](C)[C@@](O)(O2)C(=O)C(=O)N2CCCC[C@H]2C(=O)O[C@H]([C@H](C)C[C@@H]2CC[C@@H](O)[C@H](OC)C2)CC(=O)[C@H](C)/C=C(\C)[C@@H](O)[C@@H](OC)C(=O)[C@H](C)C[C@H](C)/C=C/C=C/C=C/1C [Rapamycin] | 25 | >4 × 10^4 | 0.69 mg/L | – | – | – | insoluble in water | freely soluble in benzyl alcohol, chloroform, acetone, and acetonitrile
